In patent US9249129B2, “Morpholino substituted urea derivatives as mTOR inhibitors” (CELLZOME LIMITED, priority 2010, dated 2016):

Experiments:
PI3Kα = molecular target: T1, PI3Kα (Homo sapiens, UniProt P42336); assay: kinobeads assay, PI3K alpha (dot blot detection); assay type: binding; conditions: Table 4, read-out: Inhibition values (IC50) PI3Ka
T1 construct: endogenous in cells; host or cells: Jurkat cells (ATCC TIB-152) lysate, the only lysate described

PI3Kβ = molecular target: T2, PI3Kβ (Homo sapiens, UniProt P42338); assay: kinobeads assay, PI3K beta (dot blot detection); assay type: binding; conditions: Table 4, read-out: Inhibition values (IC50) PI3Kb
T2 construct: endogenous in cells; host or cells: Jurkat cells (ATCC TIB-152) lysate, the only lysate described

PI3Kγ = molecular target: T3, PI3Kγ (Homo sapiens, UniProt P48736); assay: kinobeads assay, PI3K gamma (dot blot detection); assay type: binding; conditions: Table 4, read-out: Inhibition values (IC50) PI3Kg
T3 construct: endogenous in cells; host or cells: Jurkat cells (ATCC TIB-152) lysate, the only lysate described

[1] = tested on: S6RP serine-240/244 phosphorylation in HEK293T/17 cells; assay: In vitro phospho-S6 cellular assay (pS6RP S240/244); assay type: cell-based; conditions: Homo sapiens, Table 6, 2 hours, S6RP Ser240/244, read-out: pS6 (phospho-S6 cell assay data, activity level)
In short: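 HEK293T/17 cells in DMEM with 2% FCS treated with 8 compound concentrations (0.1% DMSO) for 2 h at 37 °C, then lysed. Phospho-S6RP Ser240/244 or phospho-Akt Ser473 quantified by MesoScale sandwich immunoassay with Sulfo-Tag detection; IC50 from variable-slope sigmoidal fit.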

[2] = tested on: Akt serine-473 phosphorylation in HEK293T/17 cells; assay: In vitro phospho-Akt cellular assay (pAkt S473); assay type: cell-based; conditions: Homo sapiens, Table 6, 2 hours, Akt Ser473, read-out: pAKT (Phospho-Akt cell assay data, activity level)
From the text: In Vitro Phospho-S6 and Phospho-Akt Cellular Assay
Activation of mTOR signaling results in phosphorylation of several downstream targets. In cells, mTOR exists in two different protein complexes. The mTOR Complex-1 (mTORC1) phosphorylates and activates S6 Kinase 1 (S6K1) and S6 Kinase 2 (S6K2) (also known as p70S6K) which then phosphorylate S6 Ribosomal Protein (S6RP) (also known as RPS6). S6RP is phosphorylated on serine 235, serine 236, serine 240 and serine 244 by both pS6K1 and pS6K2. The mTOR Complex-2 (mTORC2) phosphorylates AKT on serine 473 which activates the AKT signaling pathway.
The assay measures a test compound's inhibition of S6RP serine-240/244 phosphorylation and inhibition of Akt serine-473 phosphorylation in human embryonic kidney derived HEK293T/17 cells (ATCC CRL-11268).
The HEK293T/17 cell line is maintained in DMEM media (Invitrogen catalogue number 41965-039) supplemented with 10% FCS at 37° C. in a 5% CO2 humidified incubator.
Cells are seeded in 96-well plates at 40,000 cells/well (pS6RP S240/244 assay) or 80,000 cells/well (pAkt 5473 assay) in 90 μl growth media (DMEM, 2% FCS). Plates are incubated for 1 hour in a humidified incubator to allow the cells to adhere. Cells are treated with 8 concentrations of test compounds or DMSO alone for controls (final DMSO concentration 0.1%) and incubated at 37° C. for 2 hours. Then 20 μl of 5× concentrated lysis buffer (750 mM NaCl, 100 mM Tris pH7.4, 5 mM EDTA, 5 mM EGTA, 5% Triton X-100) is added, plates are sealed and incubated for 15 minutes at 4° C. with gentle shaking. After cell lysis, 25 μl cell lysate is transferred to a MesoScale plate coated with an antibody to pS6RP Ser240/244 (MesoScale Discovery K150DGD-3) or an antibody to pAkt Ser 473 (MesoScale Discovery K151DGD-3). Plates have been blocked before by incubation with 150 μl MesoScale Discovery Blocking Solution-A for 1 hour at room temperature followed by washing with 150 μl 1× Tris wash buffer per well. After the transfer of the cell lysate to the MSD plate, the pS6RP (or pAkt) protein is captured on the coated antibody by incubation at room temperature for 1 hour with gentle shaking. After the capture step the plate is washed three times with 150 μl of 1× Tris wash buffer per well. Then 25 μl detection antibody conjugated with a Sulfo-Tag is added and incubated for 1 hour at room temperature with gentle shaking. Subsequently the antibody solution is removed and the plate is washed 3 times with 150 μl 1× Tris wash buffer per well and 150 μl Read buffer is added. The plates are analysed on a MSD 2400 Plate Reader (MesoScale Discovery). Data analysis is performed using nonlinear regression for a sigmoidal dose-response with a variable slope.

T3 sequence (P48736 whole entry): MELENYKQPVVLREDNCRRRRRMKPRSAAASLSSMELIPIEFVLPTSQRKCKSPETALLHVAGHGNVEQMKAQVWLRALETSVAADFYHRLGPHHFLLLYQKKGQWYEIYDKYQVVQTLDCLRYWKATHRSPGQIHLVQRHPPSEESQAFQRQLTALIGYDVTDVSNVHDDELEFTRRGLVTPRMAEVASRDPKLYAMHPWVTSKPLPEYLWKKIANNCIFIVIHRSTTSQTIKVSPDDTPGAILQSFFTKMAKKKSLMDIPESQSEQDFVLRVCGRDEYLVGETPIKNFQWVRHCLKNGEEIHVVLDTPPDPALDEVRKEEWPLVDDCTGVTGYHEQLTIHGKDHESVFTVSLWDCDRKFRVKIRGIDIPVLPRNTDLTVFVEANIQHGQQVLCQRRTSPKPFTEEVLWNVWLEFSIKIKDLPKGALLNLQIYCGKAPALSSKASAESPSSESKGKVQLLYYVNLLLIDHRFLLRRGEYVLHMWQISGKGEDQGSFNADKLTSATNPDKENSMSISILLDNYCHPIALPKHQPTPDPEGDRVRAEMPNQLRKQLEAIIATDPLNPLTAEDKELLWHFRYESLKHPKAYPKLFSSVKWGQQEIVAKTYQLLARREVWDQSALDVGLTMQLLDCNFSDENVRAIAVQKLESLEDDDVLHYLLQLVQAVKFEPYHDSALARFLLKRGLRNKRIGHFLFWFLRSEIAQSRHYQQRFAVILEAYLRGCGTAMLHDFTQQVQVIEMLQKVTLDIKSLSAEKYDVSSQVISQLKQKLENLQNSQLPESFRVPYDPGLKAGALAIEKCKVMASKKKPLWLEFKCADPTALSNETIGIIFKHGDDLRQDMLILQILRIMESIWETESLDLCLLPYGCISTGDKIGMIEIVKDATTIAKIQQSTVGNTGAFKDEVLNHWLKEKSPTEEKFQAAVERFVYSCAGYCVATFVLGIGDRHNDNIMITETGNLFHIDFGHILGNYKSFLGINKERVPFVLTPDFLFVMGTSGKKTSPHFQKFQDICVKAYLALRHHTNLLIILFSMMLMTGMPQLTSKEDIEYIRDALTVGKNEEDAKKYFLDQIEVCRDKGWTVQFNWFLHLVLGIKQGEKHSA
T2 sequence (P42338 whole entry): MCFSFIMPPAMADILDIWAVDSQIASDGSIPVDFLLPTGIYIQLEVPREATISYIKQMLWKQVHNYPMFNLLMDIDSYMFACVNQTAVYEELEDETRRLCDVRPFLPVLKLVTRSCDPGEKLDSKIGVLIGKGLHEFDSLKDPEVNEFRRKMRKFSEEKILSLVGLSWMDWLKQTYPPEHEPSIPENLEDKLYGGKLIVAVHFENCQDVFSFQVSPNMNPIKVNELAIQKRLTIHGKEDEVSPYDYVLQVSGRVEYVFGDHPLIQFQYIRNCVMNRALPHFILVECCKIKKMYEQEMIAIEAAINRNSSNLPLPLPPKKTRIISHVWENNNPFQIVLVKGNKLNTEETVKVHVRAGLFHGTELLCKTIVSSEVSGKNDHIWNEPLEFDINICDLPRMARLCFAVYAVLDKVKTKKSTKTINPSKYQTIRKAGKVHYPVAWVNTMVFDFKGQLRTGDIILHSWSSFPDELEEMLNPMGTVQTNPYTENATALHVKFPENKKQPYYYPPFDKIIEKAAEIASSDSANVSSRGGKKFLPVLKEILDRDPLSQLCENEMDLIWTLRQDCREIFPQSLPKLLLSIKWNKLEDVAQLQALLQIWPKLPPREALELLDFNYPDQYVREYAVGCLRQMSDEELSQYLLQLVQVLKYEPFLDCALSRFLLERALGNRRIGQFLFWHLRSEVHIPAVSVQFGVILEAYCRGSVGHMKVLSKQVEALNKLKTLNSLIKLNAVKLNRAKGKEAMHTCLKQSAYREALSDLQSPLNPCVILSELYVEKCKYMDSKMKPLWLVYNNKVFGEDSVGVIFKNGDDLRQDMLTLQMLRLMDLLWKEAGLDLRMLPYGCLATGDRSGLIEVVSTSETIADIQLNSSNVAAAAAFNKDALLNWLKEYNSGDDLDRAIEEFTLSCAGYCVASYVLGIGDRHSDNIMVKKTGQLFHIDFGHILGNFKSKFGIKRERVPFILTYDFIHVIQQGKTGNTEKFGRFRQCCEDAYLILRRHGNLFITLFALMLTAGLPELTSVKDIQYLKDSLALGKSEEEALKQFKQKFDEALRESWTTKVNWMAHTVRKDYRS
T2 sequence (P27986 whole entry partner): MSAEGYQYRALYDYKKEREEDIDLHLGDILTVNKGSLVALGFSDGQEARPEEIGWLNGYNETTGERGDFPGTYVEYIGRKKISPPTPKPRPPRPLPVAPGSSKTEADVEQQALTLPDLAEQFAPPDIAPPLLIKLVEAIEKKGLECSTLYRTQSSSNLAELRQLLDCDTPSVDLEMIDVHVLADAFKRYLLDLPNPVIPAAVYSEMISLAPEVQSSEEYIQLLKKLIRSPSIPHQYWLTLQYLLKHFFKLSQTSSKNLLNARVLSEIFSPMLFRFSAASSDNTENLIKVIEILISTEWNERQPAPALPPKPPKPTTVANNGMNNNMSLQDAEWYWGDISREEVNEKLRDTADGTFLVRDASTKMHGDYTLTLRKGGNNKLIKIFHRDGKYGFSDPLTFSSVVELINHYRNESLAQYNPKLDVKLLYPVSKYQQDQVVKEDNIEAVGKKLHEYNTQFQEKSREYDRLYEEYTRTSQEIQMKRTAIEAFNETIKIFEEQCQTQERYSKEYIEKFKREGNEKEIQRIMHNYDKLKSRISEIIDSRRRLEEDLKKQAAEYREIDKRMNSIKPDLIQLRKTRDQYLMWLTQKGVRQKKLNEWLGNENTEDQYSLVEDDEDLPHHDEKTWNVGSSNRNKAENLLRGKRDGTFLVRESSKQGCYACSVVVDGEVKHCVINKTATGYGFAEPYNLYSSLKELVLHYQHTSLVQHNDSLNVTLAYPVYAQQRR
T1 sequence (P42336 whole entry): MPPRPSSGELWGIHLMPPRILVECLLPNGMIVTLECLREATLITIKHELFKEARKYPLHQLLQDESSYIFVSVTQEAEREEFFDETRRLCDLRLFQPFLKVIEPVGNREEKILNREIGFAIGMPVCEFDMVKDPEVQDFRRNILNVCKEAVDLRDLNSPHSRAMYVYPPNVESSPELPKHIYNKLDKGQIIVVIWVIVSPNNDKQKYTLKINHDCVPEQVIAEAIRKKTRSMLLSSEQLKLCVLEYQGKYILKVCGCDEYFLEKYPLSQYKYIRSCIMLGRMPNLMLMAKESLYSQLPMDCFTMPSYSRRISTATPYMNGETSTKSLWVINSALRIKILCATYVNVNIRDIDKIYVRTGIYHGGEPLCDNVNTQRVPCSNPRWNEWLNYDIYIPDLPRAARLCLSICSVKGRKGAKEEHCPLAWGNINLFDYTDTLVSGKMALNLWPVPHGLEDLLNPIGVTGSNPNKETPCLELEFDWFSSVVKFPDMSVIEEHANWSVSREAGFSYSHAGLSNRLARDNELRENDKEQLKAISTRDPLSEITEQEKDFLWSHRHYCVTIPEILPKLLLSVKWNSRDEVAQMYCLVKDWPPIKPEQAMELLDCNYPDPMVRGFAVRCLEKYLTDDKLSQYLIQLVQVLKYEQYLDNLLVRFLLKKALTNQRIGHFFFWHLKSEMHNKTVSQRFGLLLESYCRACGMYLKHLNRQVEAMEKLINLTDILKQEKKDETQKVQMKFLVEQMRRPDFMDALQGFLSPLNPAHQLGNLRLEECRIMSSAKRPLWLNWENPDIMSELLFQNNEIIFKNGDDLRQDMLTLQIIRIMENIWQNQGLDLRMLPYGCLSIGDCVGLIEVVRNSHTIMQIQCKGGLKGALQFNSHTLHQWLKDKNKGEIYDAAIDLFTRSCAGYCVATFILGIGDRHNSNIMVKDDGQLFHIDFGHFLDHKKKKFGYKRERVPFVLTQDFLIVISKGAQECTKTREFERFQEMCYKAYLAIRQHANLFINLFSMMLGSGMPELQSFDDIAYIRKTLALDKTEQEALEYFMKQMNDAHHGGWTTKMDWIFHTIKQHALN
T1 sequence (P27986 whole entry partner): as the sequence (P27986 whole entry partner) above

Compound	IC50 (PI3Kα) [µM]	IC50 (PI3Kβ) [µM]	IC50 (PI3Kγ) [µM]	IC50 [1] [µM]	IC50 [2] [µM]
C[C@H]1COCCN1c1nc(-c2ccc(NC(=O)NC3CC3)cc2)cc(-c2ccccc2S(C)(=O)=O)n1 [Example 4, (S)-1-cyclopropyl-3-(4-(2-(3-methylmorpholino)-6-(2-(methylsulfonyl)phenyl)pyrimidin-4-yl)phenyl)urea]	≥ 10	≥ 10	≥ 10	< 0.1	
CS(=O)(=O)c1ccc(F)cc1-c1cc(-c2ccc(NC(=O)NCCO)cc2)nc(N2CCOCC2)n1 [Example 62, 1-(4-(6-(5-fluoro-2-(methylsulfonyl)phenyl)-2-morpholinopyrimidin-4-yl)phenyl)-3-(2-hydroxyethyl)urea]	≥ 10	≥ 10	≥ 10	0.1 to 1	< 0.1
C[C@H]1COCCN1c1nc(-c2ccc(NC(=O)NCCO)cc2)cc(-c2cc(F)ccc2S(C)(=O)=O)n1 [Example 41, (S)-1-(4-(6-(5-fluoro-2-(methylsulfonyl)phenyl)-2-(3-methylmorpholino)pyrimidin-4-yl)phenyl)-3-(2-hydroxyethyl)urea]	≥ 10	≥ 10	≥ 10	< 0.1	< 0.1
C[C@H]1COCCN1c1cc(-c2ccccc2S(C)(=O)=O)nc(-c2ccc(NC(=O)NC3CC3)cc2)n1 [Example 6, (S)-1-cyclopropyl-3-(4-(4-(3-methylmorpholino)-6-(2-(methylsulfonyl)phenyl)pyrimidin-2-yl)phenyl)urea]	≥ 10	≥ 10	≥ 10	< 0.1	< 0.1
C[C@H]1COCCN1c1nc(-c2ccc(NC(=O)NCCF)cc2)cc(-c2cc(F)ccc2S(C)(=O)=O)n1 [Example 44, (S)-1-(4-(6-(5-fluoro-2-(methylsulfonyl)phenyl)-2-(3-methylmorpholino)pyrimidin-4-yl)phenyl)-3-(2-fluoroethyl)urea]	≥ 10	≥ 10	≥ 10	< 0.1	< 0.1
C[C@H]1COCCN1c1nc(-c2ccc(NC(=O)N[C@H]3CCC[C@@H]3O)cc2)cc(-c2cc(F)ccc2S(C)(=O)=O)n1 [Example 76, 1-(4-(6-(5-fluoro-2-(methylsulfonyl)phenyl)-2-((S)-3-methylmorpholino)pyrimidin-4-yl)phenyl)-3-((1S,2S)-2-hydroxycyclopentyl)urea]	≥ 10	≥ 10	≥ 10	< 0.1	< 0.1
C[C@H]1COCCN1c1nc(-c2ccc(NC(=O)NC3CC3)cc2)cc(-c2cccnc2S(C)(=O)=O)n1 [Example 46, (S)-1-cyclopropyl-3-(4-(2-(3-methylmorpholino)-6-(2-(methylsulfonyl)pyridin-3-yl)pyrimidin-4-yl)phenyl)urea]	≥ 10	≥ 10	≥ 10	< 0.1	< 0.1
C[C@H]1COCCN1c1nc(-c2ccc(NC(=O)NCC(F)F)cc2)cc(-c2cc(F)ccc2S(C)(=O)=O)n1 [Example 47, (S)-1-(2,2-difluoroethyl)-3-(4-(6-(5-fluoro-2-(methylsulfonyl)phenyl)-2-(3-methylmorpholino)pyrimidin-4-yl)phenyl)urea]	≥ 10	≥ 10	≥ 10	< 0.1	< 0.1
C[C@H]1COCCN1c1cc(-c2ccc(F)nc2)nc(-c2ccc(NC(=O)NC3CC3)cc2)n1 [Example 21, (S)-1-cyclopropyl-3-(4-(4-(6-fluoropyridin-3-yl)-6-(3-methylmorpholino)pyrimidin-2-yl)phenyl)urea]	≥ 10	≥ 10	≥ 10	< 0.1	0.1 to 1
C[C@H]1COCCN1c1cc(-c2ccccn2)nc(-c2ccc(NC(=O)NCCO)cc2)n1 [Example 43, (S)-1-(2-hydroxyethyl)-3-(4-(4-(3-methylmorpholino)-6-(pyridin-2-yl)pyrimidin-2-yl)phenyl)urea]	≥ 10	≥ 10	≥ 10	< 0.1	< 0.1
C[C@H]1COCCN1c1cc(-c2cncc(F)c2)nc(-c2ccc(NC(=O)NC3CC3)cc2)n1 [Example 23, (S)-1-cyclopropyl-3-(4-(4-(5-fluoropyridin-3-yl)-6-(3-methylmorpholino)pyrimidin-2-yl)phenyl)urea]	≥ 10	≥ 10	≥ 10	0.1 to 1	< 0.1
CCNC(=O)Nc1ccc(-c2cc(-c3cc(F)ccc3S(C)(=O)=O)nc(N3CCOC[C@@H]3C)n2)cc1 [Example 2, (S)-1-ethyl-3-(4-(6-(5-fluoro-2-(methylsulfonyl)phenyl)-2-(3-methylmorpholino)pyrimidin-4-yl)phenyl)urea]	≥ 10	≥ 10	≥ 10	< 0.1	< 0.1
C[C@H]1COCCN1c1nc(-c2ccc(NC(=O)NC3CC3)cc2)cc(-c2cc(F)ccc2S(C)(=O)=O)n1 [Example 40, (S)-1-cyclopropyl-3-(4-(6-(5-fluoro-2-(methylsulfonyl)phenyl)-2-(3-methylmorpholino)pyrimidin-4-yl)phenyl)urea]	≥ 10	≥ 10	≥ 10	< 0.1	< 0.1
C[C@H]1COCCN1c1cc(-c2ccccn2)nc(-c2ccc(NC(=O)NC3CC3)cc2)n1 [Example 42, (S)-1-cyclopropyl-3-(4-(4-(3-methylmorpholino)-6-(pyridin-2-yl)pyrimidin-2-yl)phenyl)urea]	≥ 10	≥ 10	≥ 10	0.1 to 1	< 0.1
C[C@H]1COCCN1c1ccnc(-c2ccc(NC(=O)Nc3ccncc3)cc2)n1 [Example 60, (S)-1-(4-(4-(3-methylmorpholino)pyrimidin-2-yl)phenyl)-3-(pyridin-4-yl)urea]	≥ 10	≥ 10	≥ 10	< 0.1	< 0.1
C[C@H]1COCCN1c1nc(-c2ccc(NC(=O)NCCCO)cc2)cc(-c2cc(F)ccc2S(C)(=O)=O)n1 [Example 64, (S)-1-(4-(6-(5-fluoro-2-(methylsulfonyl)phenyl)-2-(3-methylmorpholino)pyrimidin-4-yl)phenyl)-3-(3-hydroxypropyl)urea]	≥ 10	≥ 10	≥ 10	< 0.1	< 0.1
O=C(Nc1ccncc1)Nc1ccc(-c2nccc(N3CC4CCC(C3)O4)n2)cc1 [Example 61, 1-(4-(4-(8-oxa-3-azabicyclo[3.2.1]octan-3-yl)pyrimidin-2-yl)phenyl)-3-(pyridin-4-yl)urea]	≥ 10	≥ 10	≥ 10	< 0.1	< 0.1
